# Laboratory results reported in patent US20230406885A1, “CYCLIC PEPTIDES FOR TRAPPING INTERLEUKIN-1 BETA” (MERCK SHARP & DOHME LLC, priority 2022, published 2023).
# *1 amine or outer side, *2 acyl side, *3 side chain or, on linkers, in order; H or OH if unused. Where a SMILES comes first, the peptide text is derived from it. [ ]: non-standard residue; d: D form. The star is where a group is joined. Trp(4-Cl)(βS-Me) = C[C@@H](c1c[nH]c2cccc(Cl)c12)[C@H](N)C(=O)O; Trp(βS-Me,4-F) = C[C@@H](c1c[nH]c2cccc(F)c12)[C@H](N)C(=O)O; Bip(4'-COOH) = N[C@@H](Cc1ccc(-c2ccc(C(=O)O)cc2)cc1)C(=O)O; X1 = CC(=O)N1CCN(c2ccc(C[C@H](N[*:1])C(=O)[*:2])cn2)CC1; 1Nal(3S-Me) = C[C@@H](c1cccc2ccccc12)[C@H](N)C(=O)O; Phe(4-COOH) = N[C@@H](Cc1ccc(C(=O)O)cc1)C(=O)O; Pro(4R-NH2) = N[C@H]1CN[C@H](C(=O)O)C1; 1Nal = N[C@@H](Cc1cccc2ccccc12)C(=O)O; AEF = NCCOc1ccc(C[C@H](N)C(=O)O)cc1; Ethyl(2-morpholino) = C1CN(CC*)CCO1; hTyr = N[C@@H](CCc1ccc(O)cc1)C(=O)O; h4Pal = N[C@@H](CCc1ccncc1)C(=O)O; hPhe = N[C@@H](CCc1ccccc1)C(=O)O; 4Pal = N[C@@H](Cc1ccncc1)C(=O)O; dDab = NCC[C@@H](N)C(=O)O; Orn = NCCC[C@H](N)C(=O)O; dNMeA = CN[C@H](C)C(=O)O; Dap = NC[C@H](N)C(=O)O; Aib = CC(C)(N)C(=O)O
# Biological target: T1, Recombinant human IL-1β (Homo sapiens, UniProt P01584)
# T1 construct: purchased BioLegend 579404
# T1 sequence (P01584 117-269): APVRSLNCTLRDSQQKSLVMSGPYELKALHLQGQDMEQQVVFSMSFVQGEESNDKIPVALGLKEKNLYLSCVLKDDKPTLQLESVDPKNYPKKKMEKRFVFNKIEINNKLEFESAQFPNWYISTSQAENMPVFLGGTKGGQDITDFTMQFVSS
# Experiment: IL-6 assay in MRC5 cells: inhibition of IL-1β induced IL-6 secretion (AlphaLISA)
# Assay type: cell-based
# Settings: inhibition of IL-1β induced IL-6 secretion in MRC5 cells; IL-1β pre-incubated 1 hour with compound; read-out: MRC5 IC50
# Summary of the method: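 IL-1β at 2×EC80 in seeding medium (EMEM, 0.025% BSA) preincubated 1 h at ambient temperature with compound, then 3000 MRC5 cells/well added and incubated overnight at 37 °C, 5% CO2. IL-6 in conditioned medium quantified by AlphaLISA; IC50 from 4-parameter logistic fit.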
row,SMILES,IC50 [nM]
1,C[C@@H]1C(=O)NCC(=O)N[C@@H](Cc2ccc(-c3ccc(C(=O)O)cc3)cc2)C(=O)N[C@@H](Cc2c[nH]c3ccccc23)C(=O)NCC(=O)N[C@H](CCN)C(=O)N[C@@H](CCc2ccc(O)cc2)C(=O)N[C@@H](Cc2ccc(-c3ccc(C(=O)O)cc3)cc2)C(=O)N[C@@H](Cc2c[nH]c3ccccc23)C(=O)N[C@@H](Cc2ccc(C(=O)O)cc2)C(=O)NCC(=O)N2C[C@H](N)C[C@H]2C(=O)N[C@@H]([C@@H](C)c2cccc3ccccc23)C(=O)N[C@@H](CC(=O)O)C(=O)N1C [Example 32] (cyclo([Bip(4'-COOH)]W[Phe(4-COOH)]G[Pro(4R-NH2)][1Nal(3S-Me)]D[dNMeA]G[Bip(4'-COOH)]WG[dDab][hTyr])),0.033
2,"CC(=O)N1CCN(c2ccc(C[C@@H]3NC(=O)[C@H](CCc4ccc(O)cc4)NC(=O)[C@@H](C)NC(=O)[C@H](CC(C)C)NC(=O)[C@H](CCCCN)NC(=O)[C@H](Cc4ccc(-c5ccc(C(=O)O)cc5)cc4)NC(=O)CNC(=O)[C@@H](C)N(C)C(=O)[C@H](CC(=O)O)NC(=O)[C@H]([C@@H](C)c4c[nH]c5cccc(F)c45)NC(=O)[C@@H]4C[C@@H](N)CN4C(=O)CNC(=O)[C@H](Cc4ccc(C(=O)O)cc4)NC(=O)[C@H](Cc4c[nH]c5ccccc45)NC3=O)cn2)CC1 [Example 6] (cyclo([X1]W[Phe(4-COOH)]G[Pro(4R-NH2)][Trp(βS-Me,4-F)]D[dNMeA]G[Bip(4'-COOH)]KL[dA][hTyr]))",0.0666
3,C[C@@H]1C(=O)NCC(=O)N[C@@H](Cc2ccc(-c3ccc(C(=O)O)cc3)cc2)C(=O)N[C@@H](Cc2c[nH]c3ccccc23)C(=O)NCC(=O)N[C@H](CCN)C(=O)N[C@@H](CCc2ccc(O)cc2)C(=O)N[C@@H](Cc2ccc(-c3ccc(C(=O)O)cc3)cc2)C(=O)N[C@@H](Cc2c[nH]c3ccccc23)C(=O)N[C@@H](Cc2ccc(C(=O)O)cc2)C(=O)NCC(=O)N2C[C@H](N)C[C@H]2C(=O)N[C@@H]([C@@H](C)c2c[nH]c3cccc(Cl)c23)C(=O)N[C@@H](CCC(N)=O)C(=O)N1C [Example 57] (cyclo([Bip(4'-COOH)]W[Phe(4-COOH)]G[Pro(4R-NH2)][Trp(4-Cl)(βS-Me)]Q[dNMeA]G[Bip(4'-COOH)]WG[dDab][hTyr])),0.0873
4,C[C@@H]1C(=O)NCC(=O)N[C@@H](Cc2ccc(-c3ccc(C(=O)O)cc3)cc2)C(=O)N[C@@H](Cc2cccc3ccccc23)C(=O)N[C@@H](CCCN)C(=O)NC(C)(C)C(=O)NCC(=O)N[C@@H](Cc2ccc(-c3ccc(C(=O)O)cc3)cc2)C(=O)N[C@@H](Cc2c[nH]c3ccccc23)C(=O)N[C@@H](Cc2ccc(C(=O)O)cc2)C(=O)NCC(=O)N2C[C@H](N)C[C@H]2C(=O)N[C@@H]([C@@H](C)c2c[nH]c3cccc(Cl)c23)C(=O)N[C@@H](CC(=O)O)C(=O)N1C [Example 37] (cyclo([Bip(4'-COOH)]W[Phe(4-COOH)]G[Pro(4R-NH2)][Trp(4-Cl)(βS-Me)]D[dNMeA]G[Bip(4'-COOH)][1Nal][Orn][Aib]G)),0.103

# More lines, now with the values ahead:
row,IC50 [nM],SMILES
1,0.0522,CC(C)C[C@@H]1NC(=O)[C@H](Cc2cccc3ccccc23)NC(=O)[C@H](Cc2ccc(-c3ccc(C(=O)O)cc3)cc2)NC(=O)CNC(=O)[C@@H](C)N(C)C(=O)[C@H](CC(=O)O)NC(=O)[C@H]([C@@H](C)c2c[nH]c3cccc(Cl)c23)NC(=O)[C@@H]2C[C@@H](N)CN2C(=O)CNC(=O)[C@H](Cc2ccc(C(=O)O)cc2)NC(=O)[C@H](Cc2c[nH]c3ccccc23)NC(=O)[C@H](Cc2ccc(-c3ccc(C(=O)O)cc3)cc2)NC(=O)[C@H](CCc2ccc(O)cc2)NC(=O)C(C)(C)NC1=O [Example 36] (cyclo([Bip(4'-COOH)]W[Phe(4-COOH)]G[Pro(4R-NH2)][Trp(4-Cl)(βS-Me)]D[dNMeA]G[Bip(4'-COOH)][1Nal]L[Aib][hTyr]))
2,0.123,C[C@@H]1C(=O)NCC(=O)N[C@@H](Cc2ccc(-c3ccc(C(=O)O)cc3)cc2)C(=O)N[C@@H](CCCCN)C(=O)N[C@@H](CO)C(=O)N[C@H](CO)C(=O)N[C@@H](CCc2ccc(O)cc2)C(=O)N[C@@H](Cc2ccc(-c3ccc(C(=O)O)cc3)cc2)C(=O)N[C@@H](Cc2c[nH]c3ccccc23)C(=O)N[C@@H](Cc2ccc(C(=O)O)cc2)C(=O)NCC(=O)N2C[C@H](N)C[C@H]2C(=O)N[C@@H]([C@@H](C)c2c[nH]c3cccc(Cl)c23)C(=O)N[C@@H](CC(=O)O)C(=O)N1C [Example 47] (cyclo([Bip(4'-COOH)]W[Phe(4-COOH)]G[Pro(4R-NH2)][Trp(4-Cl)(βS-Me)]D[dNMeA]G[Bip(4'-COOH)]KS[dS][hTyr]))
3,0.312,"CC(C)C[C@@H]1NC(=O)[C@H](CCc2ccncc2)NC(=O)[C@H](Cc2ccc(-c3ccc(C(=O)O)cc3)cc2)NC(=O)CNC(=O)[C@@H](C)N(C)C(=O)[C@H](CC(=O)O)NC(=O)[C@H]([C@@H](C)c2c[nH]c3cccc(F)c23)NC(=O)[C@@H]2C[C@@H](N)CN2C(=O)CNC(=O)[C@H](Cc2ccc(C(=O)O)cc2)NC(=O)[C@H](Cc2c[nH]c3ccccc23)NC(=O)[C@H](Cc2ccc(-c3ccc(C(=O)O)cc3)cc2)NC(=O)[C@H](CCc2ccc(O)cc2)NC(=O)[C@@H](C)NC1=O [Example 61] (cyclo([Bip(4'-COOH)]W[Phe(4-COOH)]G[Pro(4R-NH2)][Trp(βS-Me,4-F)]D[dNMeA]G[Bip(4'-COOH)][h4Pal]L[dA][hTyr]))"

# Same assay, conditions: inhibition of IL-1β induced IL-6 secretion in MRC5 cells; read-out: MRC5 IC50
row,SMILES,IC50 [nM]
1,CC(=O)NCCOc1ccc(C[C@@H]2NC(=O)[C@H](CCc3ccccc3)NC(=O)[C@@H](C)NC(=O)[C@H](CO)NC(=O)[C@H](Cc3c[nH]c4ccccc34)NC(=O)[C@H](Cc3ccc(-c4ccc(C(=O)O)cc4)cc3)NC(=O)CNC(=O)[C@@H](C)N(C)C(=O)[C@H](CC(=O)O)NC(=O)[C@H]([C@@H](C)c3c[nH]c4cccc(Cl)c34)NC(=O)[C@@H]3C[C@@H](N)CN3C(=O)CNC(=O)[C@H](Cc3ccc(C(=O)O)cc3)NC(=O)[C@H](Cc3c[nH]c4ccccc34)NC2=O)cc1 [Example 150] (cyclo([AEF](Ac)W[Phe(4-COOH)]G[Pro(4R-NH2)][Trp(4-Cl)(βS-Me)]D[dNMeA]G[Bip(4'-COOH)]WS[dA][hPhe])),0.0633
2,CC(=O)NCCOc1ccc(C[C@@H]2NC(=O)[C@H](Cc3ccc(OCCN4CCOCC4)cc3)NC(=O)[C@@H](C)NC(=O)[C@H](CN)NC(=O)[C@H](Cc3c[nH]c4ccccc34)NC(=O)[C@H](Cc3ccc(-c4ccc(C(=O)O)cc4)cc3)NC(=O)CNC(=O)[C@@H](C)N(C)C(=O)[C@H](CC(=O)O)NC(=O)[C@H]([C@@H](C)c3cccc4ccccc34)NC(=O)[C@@H]3C[C@@H](N)CN3C(=O)CNC(=O)[C@H](Cc3ccc(C(=O)O)cc3)NC(=O)[C@H](Cc3c[nH]c4ccccc34)NC2=O)cc1 [Example 120] (cyclo([AEF](Ac)W[Phe(4-COOH)]G[Pro(4R-NH2)][1Nal(3S-Me)]D[dNMeA]G[Bip(4'-COOH)]W[Dap][dA]Y(Ethyl(2-morpholino)))),0.86
3,CC(=O)NCCOc1ccc(C[C@@H]2NC(=O)[C@H](C)NC(=O)[C@@H](C)NC(=O)[C@H](CC(C)C)NC(=O)[C@H](Cc3c[nH]c4ccccc34)NC(=O)[C@H](Cc3ccc(-c4ccc(C(=O)O)cc4)cc3)NC(=O)CNC(=O)[C@@H](C)N(C)C(=O)[C@H](CC(=O)O)NC(=O)[C@H]([C@@H](C)c3cccc4ccccc34)NC(=O)[C@@H]3C[C@@H](N)CN3C(=O)CNC(=O)[C@H](Cc3ccc(C(=O)O)cc3)NC(=O)[C@H](Cc3c[nH]c4ccccc34)NC2=O)cc1 [Example 124] (cyclo([AEF](Ac)W[Phe(4-COOH)]G[Pro(4R-NH2)][1Nal(3S-Me)]D[dNMeA]G[Bip(4'-COOH)]WL[dA]A)),0.636

# Continued, values first:
row,IC50 [nM],SMILES
1,0.31,CC(=O)NCCOc1ccc(C[C@@H]2NC(=O)[C@H](CCc3ccc(O)cc3)NC(=O)[C@@H](C)NC(=O)[C@H](CC(C)C)NC(=O)[C@H](Cc3ccncc3)NC(=O)[C@H](Cc3ccc(-c4ccc(C(=O)O)cc4)cc3)NC(=O)CNC(=O)[C@@H](C)N(C)C(=O)[C@H](CC(=O)O)NC(=O)[C@H]([C@@H](C)c3c[nH]c4cccc(Cl)c34)NC(=O)[C@@H]3C[C@@H](N)CN3C(=O)CNC(=O)[C@H](Cc3ccc(C(=O)O)cc3)NC(=O)[C@H](Cc3c[nH]c4ccccc34)NC2=O)cc1 [Example 135] (cyclo([AEF](Ac)W[Phe(4-COOH)]G[Pro(4R-NH2)][Trp(4-Cl)(βS-Me)]D[dNMeA]G[Bip(4'-COOH)][4Pal]L[dA][hTyr]))
2,0.22,"CC(=O)NCCOc1ccc(C[C@@H]2NC(=O)[C@H](CCc3ccc(O)cc3)NC(=O)[C@@H](C)NC(=O)[C@H](CO)NC(=O)[C@H](Cc3cccc4ccccc34)NC(=O)[C@H](Cc3ccc(-c4ccc(C(=O)O)cc4)cc3)NC(=O)CNC(=O)[C@@H](C)N(C)C(=O)[C@H](CC(=O)O)NC(=O)[C@H]([C@@H](C)c3c[nH]c4cccc(F)c34)NC(=O)[C@@H]3C[C@@H](N)CN3C(=O)CNC(=O)[C@H](Cc3ccc(C(=O)O)cc3)NC(=O)[C@H](Cc3c[nH]c4ccccc34)NC2=O)cc1 [Example 155] (cyclo([AEF](Ac)W[Phe(4-COOH)]G[Pro(4R-NH2)][Trp(βS-Me,4-F)]D[dNMeA]G[Bip(4'-COOH)][1Nal]S[dA][hTyr]))"
3,0.009,"CC(=O)NCCCC[C@H]1NC(=O)[C@H](CC(C)C)NC(=O)[C@H](CCCCN)NC(=O)[C@H](Cc2ccc(-c3ccc(C(=O)O)cc3)cc2)NC(=O)CNC(=O)[C@@H](C)N(C)C(=O)[C@H](CC(=O)O)NC(=O)[C@H]([C@@H](C)c2c[nH]c3cccc(F)c23)NC(=O)[C@@H]2C[C@@H](N)CN2C(=O)CNC(=O)[C@H](Cc2ccc(C(=O)O)cc2)NC(=O)[C@H](Cc2c[nH]c3ccccc23)NC(=O)[C@H](Cc2ccc(-c3ccc(C(=O)O)cc3)cc2)NC(=O)[C@H](CCc2ccc(O)cc2)NC1=O [Example 187] (cyclo([Bip(4'-COOH)]W[Phe(4-COOH)]G[Pro(4R-NH2)][Trp(βS-Me,4-F)]D[dNMeA]G[Bip(4'-COOH)]KL[dK](Ac)[hTyr]))"
